The record followed here is BindingDB's records for doi:10.1021/acschembio.6b00382 (Institut de Ge´ne´tique et de Biologie Mole´culaire et …, 2016).

As a reminder, the IC50 is the midpoint of a concentration-inhibition curve. Higher therefore signals a need for much substance.

Common to all, as to conditions: pH 7
For assay [1], the target named is Aldo-keto reductase family 1 member B10 [K125R,V301L] (Homo sapiens, UniProt O60218, K125R/V301L). Description: IC50-Activity Assay (AR). The procedure:
(§1) The IC50-activity assays were carried out on the basis of the quantification of the NADPH consumption that takes place when the enzyme catalyzes the conversion of the aldehyde substrate into the alcohol product. […] The final reaction volume was 600 μL per reaction. All compounds were dissolved in dimethyl sulfoxide (DMSO), and the corresponding solution was added to the cell to be assayed in a final concentration of 2% (v/v) DMSO and incubated for 5 min at 25 °C prior to the addition of the substrate. The reaction was initiated by the addition of 1 mM glyceraldehyde, and the decrease in optical density at 340 nm was monitored for at least 3 min at 25 °C in a UV−vis spectrophotometer (Cary 400 Bio (Varian)).

Assay [2] concerns the target T1, Aldo-keto reductase family 1 member B10 (Homo sapiens, UniProt O60218). Kind of assay: IC50-Activity Assay (AKR1B10). As for the experimental part:
as §1, with “60” for “1”, “glyceraldehyde and 0.2 mM pyridine-3-aldehyde,” for “glyceraldehyde,”, “opticaldensity” for “optical density”

Assay [3] concerns the target T1, Aldo-keto reductase family 1 member B10. Kind of assay: IC50-Activity Assay (AR). As for the experimental part: as §1
Assay [4] concerns the target Aldo-keto reductase family 1 member B1 (Homo sapiens, UniProt P15121). Kind of assay: IC50-Activity Assay (AR). The procedure:
as §1

Sequence of Aldo-keto reductase family 1 member B10 [K125R,V301L] (O60218 whole entry K125R/V301L): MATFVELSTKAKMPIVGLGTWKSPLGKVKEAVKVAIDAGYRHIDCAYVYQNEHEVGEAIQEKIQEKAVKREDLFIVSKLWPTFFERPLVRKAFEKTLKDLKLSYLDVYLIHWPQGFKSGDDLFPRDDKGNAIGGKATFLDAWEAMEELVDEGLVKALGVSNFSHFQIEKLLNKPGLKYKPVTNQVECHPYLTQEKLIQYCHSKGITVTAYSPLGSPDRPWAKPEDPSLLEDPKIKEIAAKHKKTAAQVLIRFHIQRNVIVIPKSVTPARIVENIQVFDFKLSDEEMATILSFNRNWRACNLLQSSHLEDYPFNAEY
T1 sequence (O60218 whole entry): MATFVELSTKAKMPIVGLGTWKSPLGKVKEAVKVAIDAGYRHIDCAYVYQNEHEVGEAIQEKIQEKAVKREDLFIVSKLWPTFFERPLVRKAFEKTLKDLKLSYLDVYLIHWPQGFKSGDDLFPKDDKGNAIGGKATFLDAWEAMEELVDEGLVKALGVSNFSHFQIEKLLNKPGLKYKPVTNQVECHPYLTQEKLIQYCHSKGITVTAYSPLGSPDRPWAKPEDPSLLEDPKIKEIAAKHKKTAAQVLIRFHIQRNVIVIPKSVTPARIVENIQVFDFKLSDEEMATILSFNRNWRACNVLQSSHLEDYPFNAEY

As for `COc1c(Br)c(Br)c(Br)c(Br)c1Cn1c(=O)ccn(CC(=O)O)c1=O` [2-(2,4-dioxo-3-(2,3,4,5-tetrabromo-6-methoxybenzyl)-3,4-dihydropyrimidin-1(2H)-yl)acetic acid], the 50% inhibitory concentration (IC50) in assay [1] stood at 0.45 µM.
On to `O=C(O)COc1cc(Cl)ccc1C(=O)NCc1c(Br)cc(Br)cc1Br` [2-(5-chloro-2-((2,4,6-tribromobenzyl)carbamoyl)phenoxy)acetic acid], for which the IC50 in assay [2] was 0.43 µM; in assay [3] it was 1 µM; in assay [4], 21.4 µM; in assay [1], 1 µM.
For the compound `O=C(O)COc1cc(Cl)ccc1C(=O)NCc1c(Br)c(Br)c(Br)c(Br)c1Br` [2-(5-chloro-2-(((perbromophenyl)methyl)carbamoyl)phenoxy)acetic acid], the IC50 in assay [2] stood at 0.03 µM; in assay [3], 0.08 µM; in assay [4] it was 21.7 µM; in assay [1], 0.08 µM.
As for `O=C(O)COc1cc(Cl)ccc1C(=O)NCc1ccc(Br)cc1F` [IDD388], the IC50 in assay [2] is 2.7 µM; in assay [3], 4.4 µM; in assay [1] it was 4.4 µM.
The compound `O=C(O)COc1cc(F)ccc1C(=S)NCc1ccc(Br)cc1F` [IDD594] gave an IC50 in assay [4] of 0.003 µM.
Regarding `O=C(O)COc1cc(Cl)ccc1C(=O)NCc1ccc(Br)cc1` [MK181], the IC50 in assay [2] came out at 3.7 µM; in assay [3], 4.5 µM; in assay [1], 4.5 µM.
`O=C(O)COc1cc(Cl)ccc1C(=O)NCc1c(F)c(F)c(Br)c(F)c1F` [MK319]: the IC50 stood at 3.4 µM in assay [2], 7 µM in assay [3] and 7 µM in assay [1].
In turn, `COc1ccc2c(C(=S)N(C)CC(=O)O)cccc2c1C(F)(F)F` [N-{[6-methoxy-5-(trifluoromethyl)naphthalen-1-yl]carbonothioyl}-N-methylglycine] had an IC50 in assay [2] of 0.0012 µM.
In the case of `CC1=C(CC(=O)O)c2cc(F)ccc2/C1=C\c1ccc([S@@+](C)[O-])cc1` [cis-5-Fluoro-2-methyl-1-((p-methylsulfinyl)benzylidene)indene-3-acetic acid], the IC50 in assay [1] was 2.69 µM.
